Reference: US6855716B2, “Dihydropyrimidine compounds and compositions containing the same” (Ajinomoto Co., Inc., priority 1999, dated 2005)

Legend:
N-type calcium channel [1] = target: T1, N-type calcium channel (Homo sapiens, UniProt Q00975); test: Antagonistic activity on N-type calcium channel (fluorescence dye method); type: cell-based
N-type calcium channel [2] = target: T1, N-type calcium channel; test: N-type calcium channel antagonistic activity, changed procedure (fluorescence dye method, calculated from inhibition rates); type: cell-based; settings: IMR-32 cells, 60 mM KCl stimulation, Table 3, read-out: N-type inhibition pIC50 (converted)

T1 sequence (Q00975 whole entry): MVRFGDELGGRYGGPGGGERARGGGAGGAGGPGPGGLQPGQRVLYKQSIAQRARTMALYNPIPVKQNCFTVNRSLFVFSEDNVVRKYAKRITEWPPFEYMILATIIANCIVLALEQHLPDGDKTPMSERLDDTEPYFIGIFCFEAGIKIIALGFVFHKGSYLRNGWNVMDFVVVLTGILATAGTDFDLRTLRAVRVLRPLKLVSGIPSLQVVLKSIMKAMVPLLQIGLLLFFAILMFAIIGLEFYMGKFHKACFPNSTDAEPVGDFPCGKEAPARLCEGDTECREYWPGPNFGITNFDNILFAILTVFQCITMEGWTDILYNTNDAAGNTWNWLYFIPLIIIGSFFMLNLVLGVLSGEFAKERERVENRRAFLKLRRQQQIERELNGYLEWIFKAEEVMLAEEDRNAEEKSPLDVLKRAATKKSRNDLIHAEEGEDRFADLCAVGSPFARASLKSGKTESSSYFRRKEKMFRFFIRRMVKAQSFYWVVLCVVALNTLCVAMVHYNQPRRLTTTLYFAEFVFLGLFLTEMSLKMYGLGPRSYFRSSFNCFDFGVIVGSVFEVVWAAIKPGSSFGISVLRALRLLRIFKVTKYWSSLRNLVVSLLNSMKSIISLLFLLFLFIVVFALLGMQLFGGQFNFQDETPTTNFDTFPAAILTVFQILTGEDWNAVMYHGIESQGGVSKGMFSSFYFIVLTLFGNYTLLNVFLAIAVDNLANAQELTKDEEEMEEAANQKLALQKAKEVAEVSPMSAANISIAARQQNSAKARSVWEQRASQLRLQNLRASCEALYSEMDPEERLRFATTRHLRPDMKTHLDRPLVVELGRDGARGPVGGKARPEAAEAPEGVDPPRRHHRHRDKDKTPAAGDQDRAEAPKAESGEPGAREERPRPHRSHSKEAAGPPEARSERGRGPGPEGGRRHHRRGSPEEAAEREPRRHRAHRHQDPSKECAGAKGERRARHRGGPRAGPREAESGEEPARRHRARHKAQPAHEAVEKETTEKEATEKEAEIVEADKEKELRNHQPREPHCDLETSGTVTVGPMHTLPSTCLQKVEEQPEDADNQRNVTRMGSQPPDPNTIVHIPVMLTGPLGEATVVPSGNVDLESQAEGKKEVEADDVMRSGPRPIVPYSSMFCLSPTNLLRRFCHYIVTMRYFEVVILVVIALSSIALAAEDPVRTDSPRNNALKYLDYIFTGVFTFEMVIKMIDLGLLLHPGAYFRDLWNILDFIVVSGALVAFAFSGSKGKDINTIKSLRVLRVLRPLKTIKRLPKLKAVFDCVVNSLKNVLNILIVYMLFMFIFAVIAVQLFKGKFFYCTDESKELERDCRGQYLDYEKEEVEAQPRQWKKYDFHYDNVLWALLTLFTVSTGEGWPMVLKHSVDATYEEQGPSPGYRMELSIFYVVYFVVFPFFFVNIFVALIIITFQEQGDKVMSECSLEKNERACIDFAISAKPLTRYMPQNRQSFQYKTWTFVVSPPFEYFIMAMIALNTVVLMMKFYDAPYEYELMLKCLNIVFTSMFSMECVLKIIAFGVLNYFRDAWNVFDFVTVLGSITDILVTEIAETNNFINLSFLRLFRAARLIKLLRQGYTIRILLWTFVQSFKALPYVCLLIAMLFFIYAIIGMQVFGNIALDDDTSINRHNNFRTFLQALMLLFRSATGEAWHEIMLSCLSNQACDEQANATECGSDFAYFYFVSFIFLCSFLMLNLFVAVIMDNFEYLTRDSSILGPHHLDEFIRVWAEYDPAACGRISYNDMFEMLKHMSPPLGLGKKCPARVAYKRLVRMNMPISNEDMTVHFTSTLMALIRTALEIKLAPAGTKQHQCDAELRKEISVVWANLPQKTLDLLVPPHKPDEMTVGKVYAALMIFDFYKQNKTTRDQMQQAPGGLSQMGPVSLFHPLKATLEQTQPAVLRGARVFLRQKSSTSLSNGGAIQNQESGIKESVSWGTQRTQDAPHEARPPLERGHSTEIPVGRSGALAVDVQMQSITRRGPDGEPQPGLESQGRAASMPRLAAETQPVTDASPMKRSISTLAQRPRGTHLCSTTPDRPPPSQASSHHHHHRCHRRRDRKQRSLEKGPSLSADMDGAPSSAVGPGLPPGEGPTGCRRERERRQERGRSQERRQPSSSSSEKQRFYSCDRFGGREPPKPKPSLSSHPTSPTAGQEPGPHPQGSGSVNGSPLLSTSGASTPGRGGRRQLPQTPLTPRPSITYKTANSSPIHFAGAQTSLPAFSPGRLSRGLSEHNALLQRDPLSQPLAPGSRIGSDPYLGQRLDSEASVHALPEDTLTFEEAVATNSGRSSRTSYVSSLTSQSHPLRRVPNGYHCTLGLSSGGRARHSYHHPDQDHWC
T1 sequence (P54284 whole entry partner): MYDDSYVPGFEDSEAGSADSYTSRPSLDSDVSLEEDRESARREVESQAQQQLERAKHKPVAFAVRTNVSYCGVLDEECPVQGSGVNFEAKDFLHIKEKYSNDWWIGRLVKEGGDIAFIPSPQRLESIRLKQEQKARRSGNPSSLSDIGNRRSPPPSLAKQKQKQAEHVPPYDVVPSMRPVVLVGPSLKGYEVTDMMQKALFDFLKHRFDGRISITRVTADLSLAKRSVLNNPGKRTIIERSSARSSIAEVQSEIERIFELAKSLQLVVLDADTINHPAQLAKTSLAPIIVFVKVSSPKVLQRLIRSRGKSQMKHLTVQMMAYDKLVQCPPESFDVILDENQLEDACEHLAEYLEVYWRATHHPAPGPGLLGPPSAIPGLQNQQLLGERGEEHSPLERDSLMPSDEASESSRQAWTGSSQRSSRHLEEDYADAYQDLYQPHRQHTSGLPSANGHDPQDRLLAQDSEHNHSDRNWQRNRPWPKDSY
T1 sequence (P54289 25-956 partner limits assumed): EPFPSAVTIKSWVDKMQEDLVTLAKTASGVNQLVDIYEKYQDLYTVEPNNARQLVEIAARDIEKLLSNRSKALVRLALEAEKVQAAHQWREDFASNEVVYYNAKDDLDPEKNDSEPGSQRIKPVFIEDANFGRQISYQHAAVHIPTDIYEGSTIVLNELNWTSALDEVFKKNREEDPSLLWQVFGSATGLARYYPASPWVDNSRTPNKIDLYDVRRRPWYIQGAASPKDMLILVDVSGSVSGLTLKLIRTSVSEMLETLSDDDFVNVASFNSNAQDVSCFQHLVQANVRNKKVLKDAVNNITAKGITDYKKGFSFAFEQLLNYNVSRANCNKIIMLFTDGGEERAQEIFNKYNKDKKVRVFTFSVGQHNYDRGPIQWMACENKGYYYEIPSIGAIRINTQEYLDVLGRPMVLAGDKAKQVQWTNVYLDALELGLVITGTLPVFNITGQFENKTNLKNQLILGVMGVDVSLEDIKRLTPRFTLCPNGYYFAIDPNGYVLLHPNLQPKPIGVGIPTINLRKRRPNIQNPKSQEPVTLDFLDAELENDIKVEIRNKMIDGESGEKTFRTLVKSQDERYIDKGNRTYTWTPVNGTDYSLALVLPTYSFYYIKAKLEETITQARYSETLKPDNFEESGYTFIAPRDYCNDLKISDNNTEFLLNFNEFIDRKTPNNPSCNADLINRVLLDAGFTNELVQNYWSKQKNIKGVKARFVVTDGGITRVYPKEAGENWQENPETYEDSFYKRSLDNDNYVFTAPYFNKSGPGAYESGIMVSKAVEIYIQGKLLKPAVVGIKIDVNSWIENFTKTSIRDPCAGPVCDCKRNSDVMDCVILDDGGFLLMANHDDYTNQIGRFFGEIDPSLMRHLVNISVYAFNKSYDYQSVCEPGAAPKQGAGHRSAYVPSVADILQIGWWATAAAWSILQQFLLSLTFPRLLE
T1 sequence (P54289 957-1103 partner limits assumed): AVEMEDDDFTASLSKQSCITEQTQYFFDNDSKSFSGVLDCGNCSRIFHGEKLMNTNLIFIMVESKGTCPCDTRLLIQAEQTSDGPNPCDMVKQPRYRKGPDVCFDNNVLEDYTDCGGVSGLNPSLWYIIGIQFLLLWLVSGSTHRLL

Compound	IC50 (N-type calcium channel [1]) [nM]	IC50 (N-type calcium channel [2]) [nM]
O=C(NC/C=C/c1ccccc1)C1=C(COCCC2CCCCC2)NC(c2ccccc2)=NC1c1cccc(Cl)c1 (stereo not shown) [Example 2, 4-(3-chlorophenyl)-6-[(2-cyclohexylethoxy)methyl]-2-phenyl-5-[(3-phenyl-2-propene-1-yl)-carbamoyl]-1,4-dihydropyrimidine]	5890	–
[N-]=[N+]=NCCOCC1=C(C(=O)NCCC(c2ccccc2)c2ccccc2)C(c2cccc(Cl)c2)NC(=O)N1 (stereo not shown) [Example 15, 6-(2-azidoethoxymethyl)-4-(3-chlorophenyl)-2-oxo-1,2,3,4-tetrahydropyrimidine-5-carboxylic acid (3,3-diphenylpropyl)amide]	–	2510
CC1=C(C(=O)NC/C=C/c2ccccc2)C(c2cccc(Cl)c2)N=C(c2ccccc2)N1 (stereo not shown) [Example 68, 4-(3-chlorophenyl)-6-methyl-2-phenyl-1,4-dihydropyrimidine-5-carboxylic acid (3-phenyl-2-propene-1-yl)amide]	–	1260
CC1=C(C(=O)NCCC(c2ccccc2)c2ccccc2)C(c2cccc(Cl)c2)N=C(c2ccccc2)N1 (stereo not shown) [Example 67, 4-(3-chlorophenyl)-6-methyl-2-phenyl-1,4-dihydro-pyrimidine-5-carboxylic acid (3,3-diphenylpropyl)amide]	–	1580
CCOC(=O)CN1C(=O)NC(C)=C(C(=O)NC/C=C/c2ccccc2)C1c1cccc(Cl)c1 (stereo not shown) [Example 45, ethyl [6-(3-chlorophenyl)-4-methyl-2-oxo-5-(3-phenyl-2-propene-1-ylcarbamoyl)-3,6-dihydro-2H-pyrimidine-1-yl]acetate]	–	3980
CC1=C(C(=O)NC/C=C/c2ccccc2)C(c2ccc(Cl)c(Cl)c2)N=C(c2ccccc2)N1 (stereo not shown) [Example 75, 4-(3,4-dichlorophenyl)-6-methyl-2-phenyl-1,4-dihydropyrimidine-5-carboxylic acid (3-phenyl-2-propene-1-yl)amide]	–	2000
CC1=C(C(=O)NCCC(c2ccccc2)c2ccccc2)C(c2cccc(Cl)c2)NC(=O)N1 (stereo not shown) [Example 3, 4-(3-chlorophenyl)-6-methyl-2-oxo-1,2,3,4-tetrahydropyrimidine-5-carboxylic acid (3,3-diphenylpropyl)amide]	891	2510
COCC1=C(C(=O)NCCCc2ccccc2)C(c2cccc(Cl)c2)NC(=O)N1 (stereo not shown) [Example 6, 4-(3-chlorophenyl)-6-methoxymethyl-2-oxo-1,2,3,4-tetrahydropyrimidine-5-carboxylic acid (3-phenylpropyl)amide]	977	5010
O=C(NCCC(c1ccccc1)c1ccccc1)C1=C(COCCC2CCCCC2)NC(c2ccccc2)=NC1c1cccc(Cl)c1 (stereo not shown) [Example 1, 4-(3-chlorophenyl)-6-[(2-cyclohexylethoxy)methyl]-5-(3,3-diphenylpropylcarbamoyl)-2-phenyl-1,4-dihydropyrimidine]	1260	7940
CC1=C(C(=O)NCCC(c2ccccc2)c2ccccc2)C(c2ccc(Cl)c(Cl)c2)N=C(c2cccnc2)N1 (stereo not shown) [Example 64, 4-(3,4-dichlorophenyl)-6-methyl-2-pyridine-3-yl-1,4-dihydropyrimidine-5-carboxylic acid (3,3-diphenylpropyl)amide]	–	1260
